Results taken from US10835542B2, “9-aminomethyl minocycline compounds and use thereof in treating community-acquired bacterial pneumonia (CABP)” (Paratek Pharmaceuticals, Inc., priority 2016, dated 2020).
Where two headings read alike, the source gives them in different places.

Legend:
Klebsiella pneumoniae = assay: Clinical success at PTE by baseline pathogen, microITT; type: in vivo, human; conditions: N1 = 13 (Compound 1), 13 (Moxifloxacin)
[1] = Safety and tolerability in the food effect study; type: in vivo, human
Procedure: Safety and tolerability was assessed by: Adverse events (AEs); vital sign measurements at multiple time-points within 24 hours post-dose in each treatment period; and clinical laboratory tests 24 hours post-dose in each treatment period.

[2] = Phase 1 multiple oral dose (300, 450, 600 mg) study: plasma PK, healthy adult subjects; conditions: for exposure (dose-normalized AUC0-24) as % of that predicted if perfectly dose-proportional: 300 mg to 600 mg; for AUC(0-t): human, in vivo, po
Moraxella catarrhalis = assay: Clinical success at PTE by baseline pathogen, microITT; type: in vivo, human; conditions: N1 = 4 (Compound 1), 1 (Moxifloxacin)
Legionella pneumophila = type: in vivo, human; conditions: PTE, microITT; baseline pathogen Legionella pneumophila (culture, serology and/or urinary antigen); N1 = 37 (Compound 1), 37 (Moxifloxacin)
Streptococcus pneumoniae = type: in vivo, human; conditions: PTE, microITT
Escherichia coli = assay: Clinical success at PTE by baseline pathogen, microITT; type: in vivo, human; conditions: N1 = 6 (Compound 1), 7 (Moxifloxacin)
[3] = Phase 1 multiple oral dose study: safety and tolerability; conditions: for Most frequent TEAEs: ALT increased, n (%) / Most frequent TEAEs: Diarrhea, n (%) / Most frequent TEAEs: Dizziness, n (%) / Most frequent TEAEs: Nausea, n (%) / Most frequent TEAEs: Vomiting, n (%) / TEAEs leading to early discontinuation of study drug: ALT increased, n (%) / TEAEs leading to early discontinuation of study drug: All, n (%) / TEAEs leading to early discontinuation of study drug: Lipase increased, n (%) / TEAEs leading to early discontinuation of study drug: Nausea, n (%) / TEAEs leading to early discontinuation of study drug: Syncope, n (%) / TEAEs leading to early discontinuation of study drug: Vomiting, n (%) / n (%) of subjects with Any TEAE / n (%) of subjects with Treatment-related TEAE: Safety Population

In the case of CN(C)c1cc(CNCC(C)(C)C)c(O)c2c1C[C@H]1C[C@H]3[C@H](N(C)C)C(O)=C(C(N)=O)C(=O)[C@@]3(O)C(O)=C1C2=O [Compound 1, 9-[(2,2-dimethyl-propylamino)-methyl]-minocycline], the “Clinical Success n (%)” value (Klebsiella pneumoniae) is reported as 10 (76.9) n (%), the “tolerability of a single oral dose” value ([1]; 300 mg oral) is reported as “well tolerated” and the “subjects with treatment emergent AEs” value ([1]; 32 subjects, nausea, somnolence, mild, unrelated to study drug) is reported as “two”. For the same molecule, the “median change from baseline in heart rate” value ([1]; all other treatment groups, all measured time points) was at most 3 bpm, the “serious AE (SAE)” value ([1]; single 300 mg oral dose) was “no subject experienced a serious AE” and the “treatment-related adverse events or clinically relevant changes in laboratory values or vital signs” value ([1]; single 300 mg oral dose) was “No treatment-related adverse events”. For the same molecule, the “exposure (dose-normalized AUC0-24) as % of that predicted if perfectly dose-proportional” value ([2]; Day 1) was 76%, the “exposure (dose-normalized AUC0-24) as % of that predicted if perfectly dose-proportional” value ([2]; Day 5) was 88% and the “Cmax/Dose Geometric LS Means” value ([2]; Day 1, 300 mg) was 2.09 ng/mL/mg. For the same molecule, the “Cmax/Dose Geometric LS Means” value ([2]; Day 1, 450 mg) was 1.81 ng/mL/mg, the “Cmax/Dose Geometric LS Means” value ([2]; Day 1, 600 mg) was 1.54 ng/mL/mg and the “Cmax/Dose Geometric LS Means” value ([2]; Day 5, 300 mg) was 2.62 ng/mL/mg. The “Cmax/Dose Geometric LS Means” value ([2]; Day 5, 450 mg) was 2.32 ng/mL/mg, the “Cmax/Dose Geometric LS Means” value ([2]; Day 5, 600 mg) was 2.11 ng/mL/mg and the “systemic exposure on Day 5 higher than on Day 1” value ([2]; all tested dose levels) was about 50%. The AUC(0-t) ([2]; 300 mg) was 9270 ng·h/mL, the AUC(0-t) ([2]; 450 mg) was 8980 ng·h/mL and the “Clinical Success n (%)” value (Moraxella catarrhalis) was 4 (100.0) n (%). The “Clinical Success n (%)” value (Legionella pneumophila) was 35 (94.6) n (%), the “Clinical Success n (%)” value (Streptococcus pneumoniae; Streptococcus pneumoniae MDRSP, N1 = 7 (Compound 1), 6 (Moxifloxacin)) was 7 (100.0) n (%) and the “Clinical Success n (%)” value (Streptococcus pneumoniae; Streptococcus pneumoniae Macrolide Resistant, N1 = 10 (Compound 1), 5 (Moxifloxacin)) was 10 (100.0) n (%). For the same molecule, the “Clinical Success n (%)” value (Streptococcus pneumoniae; Streptococcus pneumoniae PSSP, N1 = 26 (Compound 1), 22 (Moxifloxacin)) was 23 (88.5) n (%), the “Clinical Success n (%)” value (Streptococcus pneumoniae; baseline pathogen Streptococcus pneumoniae, N1 = 43 (Compound 1), 34 (Moxifloxacin)) was 37 (86.0) n (%) and the “Clinical Success n (%)” value (Escherichia coli) was 4 (66.7) n (%). For the same molecule, the “frequency of treatment-related TEAEs” value ([3]; 300 mg) was 15.4%, the “median change in alanine aminotransferase (ALT) between baseline and Day 5” value (shortened to “median change … (ALT) between baseline and Day 5”) ([3]; 300 mg) was −2.0 IU/L and the “Most frequent TEAEs: ALT increased, n (%)” value ([3]; 300 mg (n = 26)) was 0 n (%). For the same molecule, the “Most frequent TEAEs: Diarrhea, n (%)” value ([3]; 300 mg (n = 26)) was 0 n (%), the “Most frequent TEAEs: Dizziness, n (%)” value ([3]; 300 mg (n = 26)) was 2 (7.7) n (%) and the “Most frequent TEAEs: Nausea, n (%)” value ([3]; 300 mg (n = 26)) was 2 (7.7) n (%). For the same molecule, the “Most frequent TEAEs: Vomiting, n (%)” value ([3]; 300 mg (n = 26)) was 2 (7.7) n (%), the “TEAEs leading to early discontinuation of study drug: ALT increased, n (%)” value (from here on “TEAEs leading … ALT increased, n (%)”) ([3]; 300 mg (n = 26)) was 0 n (%) and the “TEAEs leading to early discontinuation of study drug: All, n (%)” value (“TEAEs leading … All, n (%)” for short) ([3]; 300 mg (n = 26)) was 1 (3.8) n (%). The “TEAEs leading to early discontinuation of study drug: Lipase increased, n (%)” value ([3]; 300 mg (n = 26)) was 0 n (%), the “TEAEs leading to early discontinuation of study drug: Nausea, n (%)” value ([3]; 300 mg (n = 26)) was 1 (3.8) n (%) and the “TEAEs leading to early discontinuation of study drug: Syncope, n (%)” value ([3]; 300 mg (n = 26)) was 0 n (%). For the same molecule, the “TEAEs leading to early discontinuation of study drug: Vomiting, n (%)” value ([3]; 300 mg (n = 26)) was 1 (3.8) n (%), the “n (%) of subjects with Any TEAE” value ([3]; 300 mg (n = 26)) was 5 (19.2) n (%) and the “n (%) of subjects with Treatment-related TEAE” value ([3]; 300 mg (n = 26)) was 4 (15.4) n (%). The “frequency of treatment-related TEAEs” value ([3]; 450 mg) was 8.3%, the “median change … (ALT) between baseline and Day 5” value ([3]; 450 mg) was 5.0 IU/L and the “Most frequent TEAEs: ALT increased, n (%)” value ([3]; 450 mg (n = 24)) was 1 (4.2) n (%). The “Most frequent TEAEs: Diarrhea, n (%)” value ([3]; 450 mg (n = 24)) was 0 n (%), the “Most frequent TEAEs: Dizziness, n (%)” value ([3]; 450 mg (n = 24)) was 0 n (%) and the “Most frequent TEAEs: Nausea, n (%)” value ([3]; 450 mg (n = 24)) was 1 (4.2) n (%). The “Most frequent TEAEs: Vomiting, n (%)” value ([3]; 450 mg (n = 24)) was 0 n (%), the “TEAEs leading … ALT increased, n (%)” value ([3]; 450 mg (n = 24)) was 1 (4.2) n (%) and the “TEAEs leading … All, n (%)” value ([3]; 450 mg (n = 24)) was 1 (4.2) n (%). For the same molecule, the “TEAEs leading to early discontinuation of study drug: Lipase increased, n (%)” value ([3]; 450 mg (n = 24)) was 0 n (%), the “TEAEs leading to early discontinuation of study drug: Nausea, n (%)” value ([3]; 450 mg (n = 24)) was 0 n (%) and the “TEAEs leading to early discontinuation of study drug: Syncope, n (%)” value ([3]; 450 mg (n = 24)) was 0 n (%). For the same molecule, the “TEAEs leading to early discontinuation of study drug: Vomiting, n (%)” value ([3]; 450 mg (n = 24)) was 0 n (%), the “n (%) of subjects with Any TEAE” value ([3]; 450 mg (n = 24)) was 3 (12.5) n (%) and the “n (%) of subjects with Treatment-related TEAE” value ([3]; 450 mg (n = 24)) was 2 (8.3) n (%). The “frequency of treatment-related TEAEs” value ([3]; 600 mg) was 25.0%, the “median change … (ALT) between baseline and Day 5” value ([3]; 600 mg) was 19.5 IU/L and the reports of diarrhea ([3]; 600 mg) was 2. For the same molecule, the “Most frequent TEAEs: ALT increased, n (%)” value ([3]; 600 mg (n = 24)) was 1 (4.2) n (%), the “Most frequent TEAEs: Diarrhea, n (%)” value ([3]; 600 mg (n = 24)) was 2 (8.3) n (%) and the “Most frequent TEAEs: Dizziness, n (%)” value ([3]; 600 mg (n = 24)) was 1 (4.2) n (%). The “Most frequent TEAEs: Nausea, n (%)” value ([3]; 600 mg (n = 24)) was 4 (16.7) n (%), the “Most frequent TEAEs: Vomiting, n (%)” value ([3]; 600 mg (n = 24)) was 1 (4.2) n (%) and the “TEAEs leading … ALT increased, n (%)” value ([3]; 600 mg (n = 24)) was 0 n (%). The “TEAEs leading … All, n (%)” value ([3]; 600 mg (n = 24)) was 1 (4.2) n (%).
